Source: paper PMC10135263 (Antibiotics, 2023)

Legend:
[1] = Difference of pharmacokinetic parameters between intravenous microdialysis and standard plasma sampling; conditions: intravenous microdialysis minus standard plasma, mean (95% confidence interval)
Procedure: (§1) For the data analysis, the microdialysate concentrations were attributed to the midpoint of the sampling interval. The pharmacokinetic parameters and statistical analysis were performed using STATA (v. 17.0 StataCorp, College Station, TX, USA) for continuous intravenous microdialysis samples and standard plasma samples separately. […] AUC was calculated using the linear-up/log-down method. Cmax was calculated as the maximum of all the concentrations and Tmax as the time to reach Cmax. For comparison between the two sampling methods, the difference of pharmakokinetic parameters between methods is calculated including 95% confidence intervals. The Kenward–Roger approximation method was used due to small sample size, as a correction for degrees of freedom. Model assumptions were tested by visual diagnosis of residuals, fitted values, and estimates of random effects.

[2] = Pharmacokinetics from standard plasma sampling (central venous catheter), free unbound concentrations; conditions: vancomycin 1 g iv infused over 100 min, co-administered with meropenem, eight female pigs, standard plasma samples, mean (95% confidence interval)
Description: (§2) Eight female pigs, Danish Landrace Breed, weight 78–82 kg, were included. […] Intravenous microdialysis catheters were inserted into the left subclavian vein, guided by ultrasound and using a peripheral venous introducer. On the opposite side of the throat, a central venous catheter was placed for standard plasma sampling (Figure 3). At the end of the sampling period, all pigs were euthanized by intravenous injection of pentobarbital.
After placement, the intravenous microdialysis catheters were perfused with 0.9% NaCl followed by a 20 min tissue equilibrium period. […] Dialysates were collected during an 8 h sampling period every 30 min from time 0 to 240 min and every 60 min from time 240 to 480 min, resulting in 12 dialysates per pig. Plasma samples, each containing approximately 4 mL, were collected from the central venous catheter in the middle of every dialysate sampling interval to EDTA tubes. […] After a 30 min equilibrium period, one calibration sample was collected over a 40 min interval. Collected plasma samples were stored at 5 °C for a maximum of 6 h before being centrifuged at 3000× g for 10 min. Dialysates and plasma samples were frozen at −80 °C until analysis.
The principle of this analysis is that (in competition) the free drug competes with a drug–enzyme conjugate for the antibody (File S1). […] Meropenem was quantified using ultra-high-performance liquid chromatography (UHPLC). Quantification was performed after ultrafiltration of the plasma samples using a centrifree ultrafiltration device with a nominal molecular weight limit of 30 kDa (Millipore). Some 5 µL of the filtrate was prepared for analysis.
as §1

[3] = Pharmacokinetics from continuous intravenous microdialysis sampling (subclavian vein), free unbound concentrations; conditions: vancomycin 1 g iv infused over 100 min, co-administered with meropenem, eight female pigs, mean (95% confidence interval)
Procedure: In the microdialysis system, complete equilibrium will not occur across the semipermeable membrane, due to the constant flow. As such, the obtained concentration in the dialysates represents a fraction of the actual concentration. This fraction is referred to as the relative recovery, and it is essential to calculate to determine the absolute concentration of an analyte. In this study, calibration using retrodialysis by drug was used. Relative recovery was calculated by the following equation:(1) Relative recovery %=100 ·1−Cdialysate/Cperfusate
(2) Cplasma=100 ·Cdialysate/Relative recovery %
All the microdialysis equipment was acquired from M Dialysis AB (Stockholm, Sweden), and consisted of 67 Intravenous Microdialysis Catheters with a membrane length of 30 mm, a 20 kD cut-off, and 107 Microdialysis pumps set at a flow rate of 1 μL/min.
as §2
After placement, the intravenous microdialysis catheters were perfused with 0.9% NaCl followed by a 20 min tissue equilibrium period. […]
A 3 µL sample volume was introduced into the UHPLC system with a C18 column and further analyzed with mass spectrometry. […]
For the data analysis, the microdialysate concentrations were attributed to the midpoint of the sampling interval. […] AUC was calculated using the linear-up/log-down method. Cmax was calculated as the maximum of all the concentrations and Tmax as the time to reach Cmax. For comparison between the two sampling methods, the difference of pharmakokinetic parameters between methods is calculated including 95% confidence intervals. […]

Row | Compound | Tmax, difference between methods ([1]; meropenem) | Cmax ([2]; homogeneous enzyme immunoassay) | AUC0–8h ([2]; homogeneous enzyme immunoassay, non-compartmental) | T1/2 [2] | Tmax [2] | Tmax ([3]; intravenous microdialysis samples, concentrations attributed to midpoint of sampling interval) | T1/2 ([3]; intravenous microdialysis samples) | Cmax ([3]; intravenous microdialysis, 1 μL/min, UHPLC-MS/MS, recovery-corrected) | T1/2, difference between methods ([1]; vancomycin) | Tmax, difference between methods ([1]; vancomycin)
1 | C[C@@H](O)[C@H]1C(=O)N2C(C(=O)O)=C(S[C@@H]3CN[C@H](C(=O)N(C)C)C3)[C@H](C)[C@H]12 [Meropenem, meropenem] | 5 (−8; 18) min |  |  |  |  |  |  |  |  | 
2 | CN[C@H](CC(C)C)C(=O)N[C@H]1C(=O)N[C@@H](CC(N)=O)C(=O)N[C@H]2C(=O)N[C@H]3C(=O)N[C@H](C(=O)N[C@H](C(=O)O)c4cc(O)cc(O)c4-c4cc3ccc4O)[C@H](O)c3ccc(c(Cl)c3)Oc3cc2cc(c3O[C@@H]2O[C@H](CO)[C@@H](O)[C@H](O)[C@H]2O[C@H]2C[C@](C)(N)[C@H](O)[C@H](C)O2)Oc2ccc(cc2Cl)[C@H]1O [Vancomycin, vancomycin] |  | 36 (24; 49) µg/mL | 7014 (5779; 8249) min µg/mL | 197 (124; 270) min | 85 (72; 98) min | 110 (97; 123) min | 242 (162; 322) min | 14 (2; 26) µg/mL | 45 (−55; 146) min | 25 (4.3; 46) min
